Assays:
[1] = Liquid; for mass density: 101.33 kPa, vibrating tube; for vapor or sublimation pressure: ebulliometry; for Normal boiling temperature: Ebulliometric method (Recirculating still)
[2] = refractive index (Na D-line) (dimensionless); settings: 303.15 K, 101.33 kPa, Liquid
[3] = xn = mol fraction of the nth substance listed; settings: 101.3 kPa, Liquid
[4] = excess molar enthalpy (molar enthalpy of mixing); xn = mol fraction of the nth substance listed; settings: 101.3 kPa, Liquid, Calvet calorimetry

CC(C)(C)O [2-methylpropan-2-ol]
Settings | mass density [kg/m3] | refractive index | vapor or sublimation pressure [kPa]
[1], 303.15 K | 775.37 | – | –
[1], 332.3 K | – | – | 37.4
[1], 333.03 K | – | – | 38.69
[1], 333.45 K | – | – | 39.34
[1], 334.6 K | – | – | 41.37
[1], 335.29 K | – | – | 42.93
[1], 335.87 K | – | – | 43.85
[1], 336.43 K | – | – | 45.01
[1], 337.17 K | – | – | 46.69
[1], 337.8 K | – | – | 48.06
[1], 338.37 K | – | – | 49.27
[1], 338.86 K | – | – | 50.27
[1], 339.5 K | – | – | 51.81
[1], 340.08 K | – | – | 53.17
[1], 340.59 K | – | – | 54.25
[1], 341.17 K | – | – | 55.83
[1], 341.63 K | – | – | 56.78
[1], 342.18 K | – | – | 58.37
[1], 342.68 K | – | – | 59.61
[1], 343.13 K | – | – | 60.61
[1], 343.7 K | – | – | 62.3
[1], 344.13 K | – | – | 63.27
[1], 344.68 K | – | – | 64.99
[1], 345.06 K | – | – | 65.81
[1], 345.49 K | – | – | 67.05
[1], 346.11 K | – | – | 69.05
[1], 346.51 K | – | – | 70.21
[1], 346.83 K | – | – | 71.11
[1], 347.28 K | – | – | 72.45
[1], 347.68 K | – | – | 73.43
[1], 348.2 K | – | – | 75.35
[1], 348.54 K | – | – | 76.17
[1], 348.9 K | – | – | 77.42
[1], 349.34 K | – | – | 78.76
[1], 349.74 K | – | – | 80.07
[1], 350.1 K | – | – | 81.3
[1], 350.53 K | – | – | 82.71
[1], 350.9 K | – | – | 83.96
[1], 351.33 K | – | – | 85.66
[1], 351.67 K | – | – | 86.64
[1], 352.05 K | – | – | 88.15
[1], 352.45 K | – | – | 89.39
[1], 352.8 K | – | – | 90.67
[1], 353.13 K | – | – | 92.07
[1], 353.5 K | – | – | 93.39
[1], 353.81 K | – | – | 94.63
[1], 354.18 K | – | – | 95.95
[1], 354.51 K | – | – | 97.04
[1], 354.85 K | – | – | 98.36
[1], 355.23 K | – | – | 100.07
[1], 355.5 K | – | – | 100.88
[1], 355.58 K | – | – | 101.32
[1], 355.83 K | – | – | 102.22
[1], 356.22 K | – | – | 103.92
[1], 356.52 K | – | – | 105.27
[1], 356.86 K | – | – | 106.62
[1], 357.15 K | – | – | 107.71
[1], 357.45 K | – | – | 109.12
[1], 357.77 K | – | – | 110.47
[1], 358.06 K | – | – | 111.51
[1], 358.35 K | – | – | 112.83
[1], 358.68 K | – | – | 114.36
[1], 358.96 K | – | – | 115.48
[1], 359.27 K | – | – | 117
[1], 359.84 K | – | – | 119.53
[1], 360.13 K | – | – | 120.87
[1], 360.46 K | – | – | 122.36
[1], 360.64 K | – | – | 123.08
[1], 360.97 K | – | – | 124.73
[1], 361.26 K | – | – | 126.15
[1], 361.47 K | – | – | 126.96
[1], 361.73 K | – | – | 128.2
[1], 362.02 K | – | – | 129.63
[1], 362.54 K | – | – | 132.15
[1], 362.75 K | – | – | 133.36
[1], 363.03 K | – | – | 134.71
[1], 363.08 K | – | – | 134.81
[1], 363.56 K | – | – | 137.4
[1], 363.82 K | – | – | 138.8
[1], 364.09 K | – | – | 140.03
[1], 364.33 K | – | – | 141.29
[1], 364.66 K | – | – | 142.96
[1], 365.09 K | – | – | 145.34
[1], 365.27 K | – | – | 146.36
[1], 365.62 K | – | – | 148.18
[1], 366.1 K | – | – | 150.66
[1], 366.51 K | – | – | 153.08
[1], 366.81 K | – | – | 154.69
[1], 367.08 K | – | – | 156.16
[1], 367.49 K | – | – | 158.58
[1], 367.83 K | – | – | 160.39
[1], 368.23 K | – | – | 162.82
[2], Standard Abbe refractometry | – | 1.382 | –

CCOC(=O)CC [ethyl propanoate]
Settings | mass density [kg/m3] | refractive index
[1], 298.15 K | 883.95 | –
[2], Abbe refractometer | – | 1.3791

Settings | Normal boiling temperature [°C]
[1] | 98.76

CCCC(=O)OCC [ethyl butanoate]
Settings | mass density [kg/m3] | refractive index
[1], 298.15 K | 873.94 | –
[2], Abbe refractometer | – | 1.388

Settings | Normal boiling temperature [°C]
[1] | 121.02

CCOC=O [ethyl methanoate]
Settings | mass density [kg/m3] | refractive index
[1], 298.15 K | 914.53 | –
[2], Abbe refractometer | – | 1.355

Settings | Normal boiling temperature [°C]
[1] | 54.14

CCOC(=O)CC [ethyl propanoate] + CC(C)(C)O
Settings | excess molar enthalpy [kcal/mol] | excess molar volume [m3/mol]
[3], 303.15 K, x1 = 0.0345 | – | 7.6e-07
[3], 303.15 K, x1 = 0.0905 | – | 2.12e-06
[3], 303.15 K, x1 = 0.1495 | – | 3.31e-06
[3], 303.15 K, x1 = 0.1943 | – | 4.02e-06
[3], 303.15 K, x1 = 0.2497 | – | 4.82e-06
[3], 303.15 K, x1 = 0.2987 | – | 5.39e-06
[3], 303.15 K, x1 = 0.3496 | – | 5.77e-06
[3], 303.15 K, x1 = 0.3997 | – | 6.19e-06
[3], 303.15 K, x1 = 0.4466 | – | 6.39e-06
[3], 303.15 K, x1 = 0.4486 | – | 6.45e-06
[3], 303.15 K, x1 = 0.4998 | – | 6.48e-06
[3], 303.15 K, x1 = 0.5006 | – | 6.53e-06
[3], 303.15 K, x1 = 0.5163 | – | 6.52e-06
[3], 303.15 K, x1 = 0.5188 | – | 6.51e-06
[3], 303.15 K, x1 = 0.5569 | – | 6.47e-06
[3], 303.15 K, x1 = 0.5646 | – | 6.42e-06
[3], 303.15 K, x1 = 0.5964 | – | 6.31e-06
[3], 303.15 K, x1 = 0.6368 | – | 6.07e-06
[3], 303.15 K, x1 = 0.6458 | – | 6e-06
[3], 303.15 K, x1 = 0.7044 | – | 5.45e-06
[3], 303.15 K, x1 = 0.7533 | – | 4.87e-06
[3], 303.15 K, x1 = 0.8103 | – | 4.04e-06
[3], 303.15 K, x1 = 0.858 | – | 3.25e-06
[3], 303.15 K, x1 = 0.9096 | – | 2.24e-06
[3], 303.15 K, x1 = 0.9432 | – | 1.54e-06
[3], 318.15 K, x1 = 0.0694 | – | 1.85e-06
[3], 318.15 K, x1 = 0.1223 | – | 2.99e-06
[3], 318.15 K, x1 = 0.1759 | – | 3.87e-06
[3], 318.15 K, x1 = 0.2144 | – | 4.51e-06
[3], 318.15 K, x1 = 0.2746 | – | 5.29e-06
[3], 318.15 K, x1 = 0.3188 | – | 5.79e-06
[3], 318.15 K, x1 = 0.3648 | – | 6.16e-06
[3], 318.15 K, x1 = 0.4303 | – | 6.43e-06
[3], 318.15 K, x1 = 0.4669 | – | 6.5e-06
[3], 318.15 K, x1 = 0.5429 | – | 6.53e-06
[3], 318.15 K, x1 = 0.596 | – | 6.43e-06
[3], 318.15 K, x1 = 0.6662 | – | 6.05e-06
[3], 318.15 K, x1 = 0.7319 | – | 5.43e-06
[3], 318.15 K, x1 = 0.8088 | – | 4.45e-06
[3], 318.15 K, x1 = 0.8557 | – | 3.75e-06
[3], 318.15 K, x1 = 0.9183 | – | 2.28e-06
[4], 299.15 K, x1 = 0.0555 | 0.0801 | –
[4], 299.15 K, x1 = 0.1332 | 0.183 | –
[4], 299.15 K, x1 = 0.2151 | 0.271 | –
[4], 299.15 K, x1 = 0.2979 | 0.346 | –
[4], 299.15 K, x1 = 0.3767 | 0.397 | –
[4], 299.15 K, x1 = 0.4164 | 0.417 | –
[4], 299.15 K, x1 = 0.4497 | 0.428 | –
[4], 299.15 K, x1 = 0.477 | 0.432 | –
[4], 299.15 K, x1 = 0.5513 | 0.43 | –
[4], 299.15 K, x1 = 0.6351 | 0.412 | –
[4], 299.15 K, x1 = 0.73 | 0.354 | –
[4], 299.15 K, x1 = 0.8294 | 0.257 | –
[4], 299.15 K, x1 = 0.9242 | 0.132 | –
[4], 318.15 K, x1 = 0.051 | 0.0699 | –
[4], 318.15 K, x1 = 0.1094 | 0.14 | –
[4], 318.15 K, x1 = 0.1681 | 0.209 | –
[4], 318.15 K, x1 = 0.2276 | 0.271 | –
[4], 318.15 K, x1 = 0.2892 | 0.328 | –
[4], 318.15 K, x1 = 0.3477 | 0.367 | –
[4], 318.15 K, x1 = 0.4028 | 0.395 | –
[4], 318.15 K, x1 = 0.4347 | 0.41 | –
[4], 318.15 K, x1 = 0.4528 | 0.415 | –
[4], 318.15 K, x1 = 0.4786 | 0.424 | –
[4], 318.15 K, x1 = 0.5297 | 0.425 | –
[4], 318.15 K, x1 = 0.5872 | 0.419 | –
[4], 318.15 K, x1 = 0.6499 | 0.398 | –
[4], 318.15 K, x1 = 0.7164 | 0.36 | –
[4], 318.15 K, x1 = 0.7897 | 0.3 | –
[4], 318.15 K, x1 = 0.8641 | 0.217 | –
[4], 318.15 K, x1 = 0.9381 | 0.114 | –

CCOC(C)=O [ethyl acetate]
Settings | mass density [kg/m3] | refractive index
[1], 298.15 K | 894.44 | –
[2], Abbe refractometer | – | 1.3675

Settings | Normal boiling temperature [°C]
[1] | 77.10
